Test results taken from patent US20200347153A1, “METHODS FOR FORMING INCLUSION COMPLEXES WITH HYDROPHILIC BETA-CYCLODEXTRIN DERIVATIVES AND COMPOSITIONS THEREOF” (priority 2019, published 2020).

Assays:
[1] = Stability studies (shelf life, visible changes); format: physicochemical
Procedure: The effects of HPBCD on the shelf life stability of each active agent is studied at pre-determined temperatures for 11 weeks. Real time stability is observed at −17° C., 5° C. and 25° C., and accelerated stability is observed at 40° C. For accelerated stability, one day at 40° C. is equivalent to one week, thus the data represents 77 weeks. […] The vials are then placed in a temperature-controlled oven or refrigerator/freezer. The compounds are checked daily and any visible changes are noted.

Phase solubility studies = conditions: active with HPBCD; calculated using Eq. (1)
[2] = Solubility in water (statements); format: physicochemical
[3] = cited from earlier work
[4] = 25° C., Week 1, visible changes
[5] = 25° C., Week 2, visible changes
[6] = 25° C., Week 3, visible changes
[7] = 25° C., Week 4, visible changes
[8] = 25° C., Week 5, visible changes
[9] = 25° C., Week 6, visible changes
[10] = 25° C., Week 7, visible changes
[11] = 25° C., Week 8, visible changes
[12] = 25° C., Week 9, visible changes
[13] = 25° C., Week 10, visible changes
[14] = 25° C., Week 11, visible changes
[15] = 40° C. accelerated stability, Week 1, visible changes
[16] = 5° C., Week 10, visible changes
[17] = 5° C., Week 11, visible changes
[18] = 40° C. accelerated stability, Week 2, visible changes
[19] = 40° C. accelerated stability, Week 3, visible changes
[20] = 40° C. accelerated stability, Week 4, visible changes
[21] = 40° C. accelerated stability, Week 5, visible changes
[22] = 40° C. accelerated stability, Week 6, visible changes
[23] = 40° C. accelerated stability, Week 7, visible changes
[24] = 40° C. accelerated stability, Week 8, visible changes
[25] = 40° C. accelerated stability, Week 9, visible changes
[26] = 40° C. accelerated stability, Week 10, visible changes
[27] = 40° C. accelerated stability, Week 11, visible changes

NC(=O)c1cccnc1 [Niacinamide]
Stability of Actives at 5° C. ([1]; 5° C., Week 1, visible changes): 0
Stability of Actives at 25° C. [1, 4]: 0
Stability of Actives at 25° C. [1, 5]: 0
Stability of Actives at 25° C. [1, 6]: 0
Stability of Actives at 25° C. [1, 7]: 0
Stability of Actives at 25° C. [1, 8]: 0
Stability of Actives at 25° C. [1, 9]: 0
Stability of Actives at 25° C. [1, 10]: 0
Stability of Actives at 25° C. [1, 11]: 0
Stability of Actives at 25° C. [1, 12]: 0
Stability of Actives at 25° C. [1, 13]: 0
Stability of Actives at 25° C. [1, 14]: 0
Stability of Actives at 40° C. [1, 15]: 0
association constant (Kc) for complex formation (Phase solubility studies): 0.79856 M⁻¹
solubility in water [2]: strong water solubility

Nc1cc(N2CCCCC2)nc(N)[n+]1[O-] [Minoxidil]
Stability of Actives at 5° C. ([1]; 5° C., Week 1, visible changes): 0
Stability of Actives at 5° C. ([1]; 5° C., Week 2, visible changes): 0
Stability of Actives at 5° C. ([1]; 5° C., Week 3, visible changes): 0
Stability of Actives at 5° C. ([1]; 5° C., Week 4, visible changes): 0
Stability of Actives at 5° C. ([1]; 5° C., Week 5, visible changes): 0
Stability of Actives at 5° C. ([1]; 5° C., Week 6, visible changes): 0
Stability of Actives at 5° C. ([1]; 5° C., Week 7, visible changes): 0
Stability of Actives at 5° C. ([1]; 5° C., Week 8, visible changes): 0
Stability of Actives at 5° C. ([1]; 5° C., Week 9, visible changes): 0
Stability of Actives at 5° C. [1, 16]: 0
Stability of Actives at 5° C. [1, 17]: 0
Stability of Actives at 25° C. [1, 4]: 0
Stability of Actives at 25° C. [1, 5]: 0
Stability of Actives at 25° C. [1, 6]: 0
Stability of Actives at 25° C. [1, 7]: 0
Stability of Actives at 25° C. [1, 8]: 0
Stability of Actives at 25° C. [1, 9]: 0
Stability of Actives at 25° C. [1, 10]: 0
Stability of Actives at 25° C. [1, 11]: 0
Stability of Actives at 25° C. [1, 12]: 0
Stability of Actives at 25° C. [1, 13]: 0
Stability of Actives at 25° C. [1, 14]: 0
Stability of Actives at 40° C. [1, 15]: 0
Stability of Actives at 40° C. [1, 18]: 0
Stability of Actives at 40° C. [1, 19]: 0
Stability of Actives at 40° C. [1, 20]: 0
Stability of Actives at 40° C. [1, 21]: 0
Stability of Actives at 40° C. [1, 22]: 0
Stability of Actives at 40° C. [1, 23]: 0
Stability of Actives at 40° C. [1, 24]: 0
Stability of Actives at 40° C. [1, 25]: 0
Stability of Actives at 40° C. [1, 26]: 0
Stability of Actives at 40° C. [1, 27]: 0

COc1cc(CCC(=O)CC(=O)CCc2ccc(O)c(OC)c2)ccc1O [Tetrahydrocurcumin]
Stability of Actives at 5° C. ([1]; 1 week): 0
Stability of Actives at 25° C. ([1]; 1 week): 0
Stability of Actives at 40° C. ([1]; 1 week): 0
Stability of Actives at −17 C. ([1]; 1 week): 0
Stability of Actives at 5° C. ([1]; 2 week): 0
Stability of Actives at 25° C. ([1]; 2 week): 0
Stability of Actives at 40° C. ([1]; 2 week): 0
Stability of Actives at −17 C. ([1]; 2 weeks): 0
Stability of Actives at 5° C. ([1]; 3 week): 0
Stability of Actives at 25° C. ([1]; 3 week): 0
Stability of Actives at 40° C. ([1]; 3 week): 0
Stability of Actives at −17 C. ([1]; 3 weeks): 0
Stability of Actives at 5° C. ([1]; 4 week): 0
Stability of Actives at 25° C. ([1]; 4 week): 0
Stability of Actives at 40° C. ([1]; 4 week): 0
Stability of Actives at −17 C. ([1]; 4 weeks): 0
Stability of Actives at 5° C. ([1]; 5 week): 0
Stability of Actives at 25° C. ([1]; 5 week): 0
Stability of Actives at 40° C. ([1]; 5 week): 0
Stability of Actives at −17 C. ([1]; 5 week): 0
Stability of Actives at 5° C. ([1]; 6 week): 0
Stability of Actives at 25° C. ([1]; 6 week): 0
Stability of Actives at 40° C. ([1]; 6 week): 0
Stability of Actives at −17 C. ([1]; 6 week): 0
Stability of Actives at 5° C. ([1]; 7 week): 0
Stability of Actives at 25° C. ([1]; 7 week): 0
Stability of Actives at 40° C. ([1]; 7 week): 0
Stability of Actives at −17 C. ([1]; 7 week): 0
Stability of Actives at 5° C. ([1]; 8 week): 0
Stability of Actives at 25° C. ([1]; 8 week): 0
Stability of Actives at 40° C. ([1]; 8 week): 0
Stability of Actives at −17 C. ([1]; 8 week): 0
Stability of Actives at 5° C. ([1]; 9 week): 0
Stability of Actives at 25° C. ([1]; 9 week): 0
Stability of Actives at 40° C. ([1]; 9 week): 0
Stability of Actives at −17 C. ([1]; 9 week): 0
Stability of Actives at 5° C. ([1]; 10 week): 0
Stability of Actives at 25° C. ([1]; 10 week): 0
Stability of Actives at 40° C. ([1]; 10 week): 0
Stability of Actives at −17 C. ([1]; 10 weeks): 0
Stability of Actives at 5° C. ([1]; 11 week): 0
Stability of Actives at 25° C. ([1]; 11 week): 0
Stability of Actives at 40° C. ([1]; 11 week): 0
Stability of Actives at −17 C. ([1]; 11 weeks): 0

CC(O)COC[C@H]1O[C@@H]2O[C@H]3[C@H](O)[C@@H](O)[C@@H](O[C@H]4[C@H](O)[C@@H](O)[C@@H](O[C@H]5[C@H](O)[C@@H](O)[C@@H](O[C@H]6[C@H](O)[C@@H](O)[C@@H](O[C@H]7[C@H](O)[C@@H](O)[C@@H](O[C@H]8[C@H](O)[C@@H](O)[C@@H](O[C@H]1[C@H](O)[C@H]2O)O[C@@H]8COCC(C)O)O[C@@H]7COCC(C)O)O[C@@H]6COCC(C)O)O[C@@H]5COCC(C)O)O[C@@H]4COCC(C)O)O[C@@H]3COCC(C)O (stereo partly drawn) [HPBCD, Hydroxypropyl β-cyclodextrin]
aqueous solubility [3]: more than 60 g/100 mL
Stability of Actives at 5° C. ([1]; 5° C., Week 1, visible changes): 0
Stability of Actives at 5° C. ([1]; 5° C., Week 2, visible changes): 0
Stability of Actives at 5° C. ([1]; 5° C., Week 3, visible changes): 0
Stability of Actives at 5° C. ([1]; 5° C., Week 4, visible changes): 0
Stability of Actives at 5° C. ([1]; 5° C., Week 5, visible changes): 0
Stability of Actives at 5° C. ([1]; 5° C., Week 6, visible changes): 0
Stability of Actives at 5° C. ([1]; 5° C., Week 7, visible changes): 0
Stability of Actives at 5° C. ([1]; 5° C., Week 8, visible changes): 0
Stability of Actives at 5° C. ([1]; 5° C., Week 9, visible changes): 0
Stability of Actives at 5° C. [1, 16]: 0
Stability of Actives at 5° C. [1, 17]: 0
Stability of Actives at 25° C. [1, 4]: 0
Stability of Actives at 25° C. [1, 5]: 0
Stability of Actives at 25° C. [1, 6]: 0
Stability of Actives at 25° C. [1, 7]: 0
Stability of Actives at 25° C. [1, 8]: 0
Stability of Actives at 25° C. [1, 9]: 0
Stability of Actives at 25° C. [1, 10]: 0
Stability of Actives at 25° C. [1, 11]: 0
Stability of Actives at 25° C. [1, 12]: 0
Stability of Actives at 25° C. [1, 13]: 0
Stability of Actives at 25° C. [1, 14]: 0
Stability of Actives at 40° C. [1, 15]: 0
Stability of Actives at 40° C. [1, 18]: 0
Stability of Actives at 40° C. [1, 19]: 0
Stability of Actives at 40° C. [1, 20]: 0
Stability of Actives at 40° C. [1, 21]: 0
Stability of Actives at 40° C. [1, 22]: 0
Stability of Actives at 40° C. [1, 23]: 0
Stability of Actives at 40° C. [1, 24]: 0
Stability of Actives at 40° C. [1, 25]: 0
Stability of Actives at 40° C. [1, 26]: 0
Stability of Actives at 40° C. [1, 27]: 0
